Experimental data taken from patent publication US10961200B2, “Small molecule inhibitors of lactate dehydrogenase and methods of use thereof” (THE UNITED STATES OF AMERICA, AS REPRESENTED BY THE …, priority 2014, dated 2021).
pIC50: −log10 of the molar value. Like-named read-outs stand apart in the source and are kept apart here.

How the values were obtained:
Human LDHA = Human LDHA (Homo sapiens (Human), UniProt P00338); assay: human LDHA primary biochemical assay (resazurin/diaphorase coupled, fluorescence)
From the text: Test compounds were placed in a Greiner Bio-One (Monroe, N.C.) 1536-well black solid bottom assay plate. 200 millimolar (mM) Tris HCl, pH 7.4, 100 micromolar […] EDTA and 0.01% TWEEN-20™, final concentration, was used as the assay buffer. The LDHA reagent was 2 nanomolar (nM) Human LDHA (Meridian Life Science, Inc., Memphis, Tenn.), final concentration, in assay buffer.

MiaPaCa2 cells = assay: cell-based HT lactate assay, colorimetric/fluorometric detection (inhibition of lactate production); conditions: class symbols, 0 to 3 pluses
Description: Cell-based HT Lactate assay is a miniaturized Biovision Lactate Colorimetric/Fluorometric Assay Kit (Cat #K607-100). The assay is roughly a 3.5 hour assay run in a 1536 plate format. Cell number optimization should be run for each cell line to achieve an optimal number in which lactate production equals roughly 90% of the standard curve range. Cell number per well optimization has been performed with the following cell lines: MiaPaCa2—500 cells/well, SNU398—500 cells/well, and P493—500 cells/well.
The lactate activity in Table 8 is represented by 0 to 3 pluses as follows: +++<1 μM; ++1-10 μM; +10-57 μM; and −>57 μM.

[1] = LDHA inhibitory activity, assay of Example 1, activity level classes
[2] = LDHA inhibitory activity, activity level based on IC50 (Table 7)

SMILES | pIC50 (MiaPaCa2 cells; Homo sapiens, MIA PaCa-2) | pIC50 (Human LDHA; [2]) | also measured
NS(=O)(=O)c1ccc(Cc2c(-c3ccc(F)c(F)c3)nn(-c3nc(C(=O)O)cs3)c2I)cc1 [Compound 43, 2-(3-(3,4-difluorophenyl)-5-iodo-4-(4-sulfamoylbenzyl)-1H-pyrazol-1-yl)thiazole-4-carboxylic acid] | 4.24 to 5.00 | – | pIC50 (Human LDHA; [1]): > 7.00
Cc1c(Cc2ccc(S(N)(=O)=O)cc2)c(-c2ccccc2)nn1-c1nc(C(=O)O)cs1 [Compound 47, 2-(5-methyl-3-phenyl-4-(4-sulfamoylbenzyl)-1H-pyrazol-1-yl)thiazole-4-carboxylic acid] | < 4.24 | – | pIC50 (Human LDHA; [1]): > 7.00
NS(=O)(=O)c1ccc(Cc2c(-c3ccc(F)c(F)c3)nn(-c3nc(C(=O)O)cs3)c2O)cc1 [Compound 53, 2-(3-(3,4-difluorophenyl)-5-hydroxy-4-(4-sulfamoylbenzyl)-1H-pyrazol-1-yl)thiazole-4-carboxylic acid] | < 4.24 | – | –
NS(=O)(=O)c1ccc(Cc2c(-c3cccc(-c4ccccc4)c3)nn(-c3nc(C(=O)O)cs3)c2O)cc1 [Compound 54, 2-(3-([1,1′-biphenyl]-3-yl)-5-hydroxy-4-(4-sulfamoylbenzyl)-1H-pyrazol-1-yl)thiazole-4-carboxylic acid] | < 4.24 | – | –
NS(=O)(=O)c1ccc(Cc2c(-c3ccccc3)nn(-c3nc(C(=O)O)cs3)c2C#CC2CC2)cc1 [Compound 160, 2-(5-(cyclopropylethynyl)-3-phenyl-4-(4-sulfamoylbenzyl)-1H-pyrazol-1-yl)thiazole-4-carboxylic acid] | 5.00 to 6.00 | – | pIC50 (Human LDHA; [1]): > 7.00
NS(=O)(=O)c1ccc(Cc2c(-c3cccc(-c4ccccc4)c3)nn(-c3nc(C(=O)O)cs3)c2C2CC2)c(F)c1 [Compound 183, 2-(3-([1,1′-biphenyl]-3-yl)-5-cyclopropyl-4-(2-fluoro-4-sulfamoylbenzyl)-1H-pyrazol-1-yl)thiazole-4-carboxylic acid] | > 6.00 | – | pIC50 (Human LDHA; [1]): > 7.00
NS(=O)(=O)c1ccc(Cc2c(-c3cccc(-c4ccccc4)c3)nn(-c3nc(C(=O)O)cs3)c2CCC2CC2)cc1 [Compound 203, 2-(3-([1,1′-biphenyl]-3-yl)-5-(2-cyclopropylethyl)-4-(4-sulfamoylbenzyl)-1H-pyrazol-1-yl)thiazole-4-carboxylic acid] | > 6.00 | – | pIC50 (Human LDHA; [1]): > 7.00
NS(=O)(=O)c1ccc(Cc2c(C3CC3(F)F)nn(-c3nc(C(=O)O)cs3)c2-c2cccc(-c3ccccc3)c2)cc1 (stereo not drawn) [Compound 206, 2-(5-([1,1′-biphenyl]-3-yl)-3-(2,2-difluorocyclopropyl)-4-(4-sulfamoylbenzyl)-1H-pyrazol-1-yl)thiazole-4-carboxylic acid] | 5.00 to 6.00 | – | pIC50 (Human LDHA; read-out: Inhibitory activity IC50): 4.24 to 6.00
N[S+](=O)([O-])c1ccc(Cc2c(-c3cccc(-c4ccccc4)c3)nn(-c3nc(C(=O)O)cs3)c2CC2CC2)cc1 [Compound 276] | – | – | pIC50 (MiaPaCa2 cells): > 6.00
NS(=O)(=O)c1ccc(Cc2c(-c3ccc(F)c(OC4CC4)c3)nn(-c3nc(C(=O)O)cs3)c2CC2CC2)cc1F [Compound 471, 2-(3-(3-cydopropoxy-4-fluorophenyl)-5-(cyclopropylmethyl)-4-(3-fluoro-4-sulfamoylbenzyl)-1H-pyrazol-1-yl)thiazole-4-carboxylic acid] | 5.00 to 6.00 | – | –
Cc1ccc(-c2cc(-c3nn(-c4nc(C(=O)O)cs4)c(CC4CC4)c3Cc3ccc(S(N)(=O)=O)cc3F)ccc2F)cc1 [Compound 472, 2-(5-(cyclopropylmethyl)-3-(6-fluoro-4′-methyl-[1,1′-biphenyl]-3-yl)-4-(2-fluoro-4-sulfamoylbenzyl)-1H-pyrazol-1-yl)thiazole-4-carboxylic acid] | > 6.00 | – | –
NS(=O)(=O)c1ccc(Cc2c(-c3cccc(OC4CCCC4)c3)nn(-c3nc(C(=O)O)cs3)c2CC2CC2)cc1 [Compound 477, 2-(3-(3-(cyclopentyloxy)phenyl)-5-(cyclopropylmethyl)-4-(4-sulfamoylbenzyl)-1H-pyrazol-1-yl)thiazole-4-carboxylic Acid] | > 6.00 | – | –
NS(=O)(=O)c1ccc(Cc2c(-c3cccc(Nc4ccccc4)c3)nn(-c3nc(C(=O)O)cs3)c2CC2CC2)cc1 [Compound 485, 2-(5-(cyclopropylmethyl)-3-(3-(phenylamino)phenyl)-4-(4-sulfamoylbenzyl)-1H-pyrazol-1-yl)thiazole-4-carboxylic acid] | 5.00 to 6.00 | – | –
CC(C)Oc1cccc(-c2nn(-c3nc(C(=O)O)cs3)c(CC3CC3)c2Cc2ccc(S(N)(=O)=O)cc2)c1 [Compound 504, 2-(5-(cyclopropylmethyl)-3-(3-isopropoxyphenyl)-4-(4-sulfamoylbenzyl)-1H-pyrazol-1-yl)thiazole-4-carboxylic Acid] | 5.00 to 6.00 | – | –
COc1cccc(-c2cccc(-c3nn(-c4nc(C(=O)O)cs4)cc3Cc3ccc(S(N)(=O)=O)cc3)c2)c1 [Compound 521, 2-(3-(3′-methoxy-[1,1′-biphenyl]-3-yl)-4-(4-sulfamoylbenzyl)-1H-pyrazol-1-yl)thiazole-4-carboxylic acid] | – | > 7.00 | –
NS(=O)(=O)c1ccc(Cc2cn(-c3nc(C(=O)O)cs3)nc2-c2cccc(-c3cccnc3)c2)cc1 [Compound 522, 2-(3-(3-(pyridin-3-yl)phenyl)-4-(4-sulfamoylbenzyl)-1H-pyrazol-1-yl)thiazole-4-carboxylic acid] | – | 6.00 to 7.00 | –
Nc1cccc(-c2cccc(-c3nn(-c4nc(C(=O)O)cs4)cc3Cc3ccc(S(N)(=O)=O)cc3)c2)c1 [Compound 524, 2-(3-(3′-amino-[1,1′-biphenyl]-3-yl)-4-(4-sulfamoylbenzyl)-1H-pyrazol-1-yl)thiazole-4-carboxylic acid] | – | 6.00 to 7.00 | –
NS(=O)(=O)c1ccc(Cc2c(CC3CC3)nn(-c3nc(C(=O)O)cs3)c2-c2cc(F)cc(-c3cccc(F)c3)c2)cc1 [Compound 525, 4-((3-(cyclopropylmethyl)-5-(3′,5-difluoro-[1,1′-biphenyl]-3-yl)-1-(4-((oxo-l3-methyl)-l3-oxidanyl)thiazol-2-yl)-1H-pyrazol-4-yl)methyl)benzenesulfonamide] | – | 4.24 to 6.00 | –
CC(C)=Cc1cc(-c2nn(-c3nc(C(=O)O)cs3)c(CC3CC3)c2Cc2ccc(S(N)(=O)=O)c(F)c2)ccc1F [Compound 530, 2-(5-(cyclopropylmethyl)-3-(4-fluoro-3-(2-methylprop-1-en-1-yl)phenyl)-4-(3-fluoro-4-sulfamoylbenzyl)-1H-pyrazol-1-yl)thiazole-4-carboxylic acid] | – | > 7.00 | –
NS(=O)(=O)c1ccc(Cc2c(-c3ccc(F)c(/C=C/C4CC4)c3)nn(-c3nc(C(=O)O)cs3)c2CC2CC2)cc1F [Compound 532, (E)-2-(5-(cyclopropylmethyl)-3-(3-(2-cyclopropylvinyl)-4-fluorophenyl)-4-(3-fluoro-4-sulfamoylbenzyl)-1H-pyrazol-1-yl)thiazole-4-carboxylic acid] | – | > 7.00 | –
C/C=C/c1cc(-c2nn(-c3nc(C(=O)O)cs3)c(CC3CC3)c2Cc2ccc(S(N)(=O)=O)c(F)c2)ccc1F [Compound 533, (E)-2-(5-(cyclopropylmethyl)-3-(4-fluoro-3-(prop-1-en-1-yl)phenyl)-4-(3-fluoro-4-sulfamoylbenzyl)-1H-pyrazol-1-yl)thiazole-4-carboxylic acid] | – | > 7.00 | –
C=C(C)c1cc(-c2nn(-c3nc(C(=O)O)cs3)c(CC3CC3)c2Cc2ccc(S(N)(=O)=O)c(F)c2)ccc1F [Compound 534, 2-(5-(cyclopropylmethyl)-3-(4-fluoro-3-(prop-1-en-2-yl)phenyl)-4-(3-fluoro-4-sulfamoylbenzyl)-1H-pyrazol-1-yl)thiazole-4-carboxylic acid] | – | > 7.00 | –
NS(=O)(=O)c1ccc(Cc2c(-c3ccc(F)c(/C=C/C4CCCC4)c3)nn(-c3nc(C(=O)O)cs3)c2CC2CC2)cc1F [Compound 535, (E)-2-(3-(3-(2-cyclopentylvinyl)-4-fluorophenyl)-5-(cyclopropylmethyl)-4-(3-fluoro-4-sulfamoylbenzyl)-1H-pyrazol-1-yl)thiazole-4-carboxylic acid] | – | > 7.00 | –
CCOC(=O)c1csc(-n2nc(-c3ccc(F)c(C#CC4CCCC4)c3)c(Cc3cccc(S(N)(=O)=O)c3)c2CC2CC2)n1 [Compound 536, ethyl 2-(3-(3-(cyclopentylethynyl)-4-fluorophenyl)-5-(cyclopropylmethyl)-4-(3-sulfamoylbenzyl)-1H-pyrazol-1-yl)thiazole-4-carboxylate] | – | < 4.24 | –
CC(C)CC#Cc1cc(-c2nn(-c3nc(C(=O)O)cs3)c(CC3CC3)c2Cc2ccc(S(N)(=O)=O)c(F)c2)ccc1F [Compound 538, 2-(5-(cyclopropylmethyl)-3-(4-fluoro-3-(4-methylpent-1-yn-1-yl)phenyl)-4-(3-fluoro-4-sulfamoylbenzyl)-1H-pyrazol-1-yl)thiazole-4-carboxylic acid] | – | > 7.00 | –
CCCC#Cc1cc(-c2nn(-c3nc(C(=O)O)cs3)c(CC3CC3)c2Cc2ccc(S(N)(=O)=O)c(F)c2)ccc1F [Compound 539, 2-(5-(cyclopropylmethyl)-3-(4-fluoro-3-(pent-1-yn-1-yl)phenyl)-4-(3-fluoro-4-sulfamoylbenzyl)-1H-pyrazol-1-yl)thiazole-4-carboxylic acid] | – | > 7.00 | –
CCCCC#Cc1cc(-c2nn(-c3nc(C(=O)O)cs3)c(CC3CC3)c2Cc2ccc(S(N)(=O)=O)c(F)c2)ccc1F [Compound 540, 2-(5-(cyclopropylmethyl)-3-(4-fluoro-3-(hex-1-yn-1-yl)phenyl)-4-(3-fluoro-4-sulfamoylbenzyl)-1H-pyrazol-1-yl)thiazole-4-carboxylic acid] | – | > 7.00 | –
